Laboratory results published in patent US9546164B2 (GENENTECH, INC., priority 2013, dated 2017).
Where a name gives a salt, the structure may show the parent alone. Read-outs that look alike come from different tables or passages of the source.

Molecular target: hNav1.7 (Homo sapiens (Human), UniProt Q15858)
Experiment: Tritiated sulfonamide competitive binding to membranes from cells expressing hNav1.7 and the β1 subunit;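 note: Filter-bound radioactivity counted by liquid scintillation, nonspecific binding defined with excess unlabelled ligand, IC50 fitted to percent inhibition of specific binding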
[1] = read-out: Ligand Binding Assay, 100 pM [3H]compound, membranes with hNav1.7 and β1 subunit, 18 h, room temperature

Sequence of hNav1.7 (Q15858 other isoform, or with tags, fused parts or gaps): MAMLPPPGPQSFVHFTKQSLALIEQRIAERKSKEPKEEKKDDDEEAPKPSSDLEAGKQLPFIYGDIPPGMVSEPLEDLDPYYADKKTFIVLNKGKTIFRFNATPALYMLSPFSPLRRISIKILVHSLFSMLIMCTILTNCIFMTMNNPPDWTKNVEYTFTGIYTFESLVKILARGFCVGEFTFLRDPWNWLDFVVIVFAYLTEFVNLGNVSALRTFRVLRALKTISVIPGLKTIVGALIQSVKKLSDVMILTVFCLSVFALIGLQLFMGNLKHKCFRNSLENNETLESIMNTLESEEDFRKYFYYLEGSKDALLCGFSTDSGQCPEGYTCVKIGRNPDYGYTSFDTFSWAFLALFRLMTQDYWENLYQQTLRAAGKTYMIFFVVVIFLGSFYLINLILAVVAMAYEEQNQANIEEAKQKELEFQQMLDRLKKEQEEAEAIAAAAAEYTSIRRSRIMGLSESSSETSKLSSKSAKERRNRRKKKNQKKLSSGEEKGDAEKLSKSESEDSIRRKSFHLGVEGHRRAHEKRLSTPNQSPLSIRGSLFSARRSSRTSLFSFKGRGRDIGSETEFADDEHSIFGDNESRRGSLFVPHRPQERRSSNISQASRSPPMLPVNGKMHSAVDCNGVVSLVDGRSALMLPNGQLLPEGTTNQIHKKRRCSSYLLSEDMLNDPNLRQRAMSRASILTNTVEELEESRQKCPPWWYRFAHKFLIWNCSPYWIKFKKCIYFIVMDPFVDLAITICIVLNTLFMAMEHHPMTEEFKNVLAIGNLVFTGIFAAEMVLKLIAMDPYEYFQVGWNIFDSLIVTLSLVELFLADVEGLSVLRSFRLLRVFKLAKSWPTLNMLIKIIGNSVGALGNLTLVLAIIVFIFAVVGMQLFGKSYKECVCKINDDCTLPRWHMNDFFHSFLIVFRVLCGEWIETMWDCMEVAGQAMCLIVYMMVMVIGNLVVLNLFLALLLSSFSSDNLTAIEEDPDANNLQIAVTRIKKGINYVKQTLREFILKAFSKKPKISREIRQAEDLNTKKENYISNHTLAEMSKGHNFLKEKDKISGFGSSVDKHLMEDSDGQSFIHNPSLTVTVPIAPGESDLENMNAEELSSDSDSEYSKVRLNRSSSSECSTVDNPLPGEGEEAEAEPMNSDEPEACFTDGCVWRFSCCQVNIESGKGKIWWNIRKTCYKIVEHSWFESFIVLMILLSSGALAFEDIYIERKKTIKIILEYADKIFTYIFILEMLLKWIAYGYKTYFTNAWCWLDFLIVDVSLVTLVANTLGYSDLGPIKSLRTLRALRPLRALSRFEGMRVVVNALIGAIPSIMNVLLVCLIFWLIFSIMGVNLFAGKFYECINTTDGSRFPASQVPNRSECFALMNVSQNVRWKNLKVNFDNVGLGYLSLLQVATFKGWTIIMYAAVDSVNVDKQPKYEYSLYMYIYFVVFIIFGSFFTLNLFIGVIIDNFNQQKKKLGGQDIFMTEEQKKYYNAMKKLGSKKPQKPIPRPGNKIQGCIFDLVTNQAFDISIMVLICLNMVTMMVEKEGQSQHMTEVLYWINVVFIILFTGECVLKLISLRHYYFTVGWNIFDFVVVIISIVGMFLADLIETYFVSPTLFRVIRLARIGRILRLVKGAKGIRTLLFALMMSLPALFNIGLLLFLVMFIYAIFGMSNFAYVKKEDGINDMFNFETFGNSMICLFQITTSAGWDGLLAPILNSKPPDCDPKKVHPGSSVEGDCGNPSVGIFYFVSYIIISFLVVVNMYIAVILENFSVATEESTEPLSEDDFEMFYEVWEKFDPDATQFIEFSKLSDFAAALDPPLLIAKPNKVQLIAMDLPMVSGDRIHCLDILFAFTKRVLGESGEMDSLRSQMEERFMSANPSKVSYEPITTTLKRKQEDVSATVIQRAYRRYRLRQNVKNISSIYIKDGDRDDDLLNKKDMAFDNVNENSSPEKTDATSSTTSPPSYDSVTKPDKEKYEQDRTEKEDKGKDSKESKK
Sequence of hNav1.7 (Q07699 19-218 partner): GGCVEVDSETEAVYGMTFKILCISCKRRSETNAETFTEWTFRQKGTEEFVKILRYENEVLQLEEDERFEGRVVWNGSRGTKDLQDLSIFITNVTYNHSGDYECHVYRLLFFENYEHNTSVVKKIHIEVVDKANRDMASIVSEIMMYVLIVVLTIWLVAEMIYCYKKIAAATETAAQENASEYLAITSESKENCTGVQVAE

Row | SMILES | IC50 [1] | IC50
1 | O=C(NS(=O)(=O)C1CC1)c1cc(C2CC2)c(OCCC2CCN(Cc3cc(Cl)cc(Cl)c3)CC2)cc1F [Example 304, 5-cyclopropyl-N-(cyclopropylsulfonyl)-4-(2-(1-(3,5-dichlorobenzyl)piperidin-4-yl)ethoxy)-2-fluorobenzamide, trifluoroacetic acid salt] | 3.7 nM | –
2 | C[C@@H](c1ccc(Cl)c(Cl)c1)N1CCC(C)(COc2cc(F)c(C(=O)NS(C)(=O)=O)cc2C2CC2)CC1 (single isomer, unassigned) [Example 219] | 8.3 nM | –
3 | CS(=O)(=O)NC(=O)c1cc(C2CC2)c(CN2[C@@H]3CC[C@H]2CC(Oc2cc(C(F)(F)F)cc(Cl)c2F)C3)cc1F (stereo partly drawn) [Example 471, 4-(((1R,3r,5S)-3-(3-chloro-2-fluoro-5-(trifluoromethyl)phenoxy)-8-azabicyclo[3.2.1]octan-8-yl)methyl)-5-cyclopropyl-2-fluoro-N-(methylsulfonyl)benzamide 2,2,2-trifluoroacetate] | 3.7 nM | –
4 | CS(=O)(=O)NC(=O)c1cc(C2CC2)c(OCC2CCN(S(=O)(=O)c3ccc(F)c(Cl)c3)CC2)cc1F [Example 382, 4-((1-((3-chloro-4-fluorophenyl)sulfonyl)piperidin-4-yl)methoxy)-5-cyclopropyl-2-fluoro-N-(methylsulfonyl)benzamide] | 40.7 nM | –
5 | COC[C@H](c1ccc(Cl)cc1Cl)N1CCC(COc2cc(F)c(C(=O)NS(C)(=O)=O)cc2C2CC2)CC1 [Example 282, (S)-5-cyclopropyl-4-((1-(1-(2,4-dichlorophenyl)-2-methoxyethyl)piperidin-4-yl)methoxy)-2-fluoro-N-(methylsulfonyl)benzamide] | 4.4 nM | –
6 | O=C(NS(=O)(=O)C1CC1)c1cc(C2CC2)c(OC[C@@H]2C[C@H]3CC[C@@H](C2)N3Cc2cc(C(F)(F)F)cc(Cl)c2F)cc1F [Example 396, 4-(((1R,3S,5S)-8-(3-chloro-2-fluoro-5-(trifluoromethyl)benzyl)-8-azabicyclo-[3.2.1]octan-3-yl)methoxy)-5-cyclopropyl-N-(cyclopropylsulfonyl)-2-fluorobenzamide, trifluoroacetic acid salt] | 14.8 nM | –
7 | O=C(NS(=O)(=O)C1CC1)c1cc(C2CC2)c(OCC2CCN(C(c3ccccc3)c3cc(Cl)cc(Cl)c3)CC2)cc1F (centres unmarked) [Example 411, 5-cyclopropyl-N-(cyclopropylsulfonyl)-4-((1-((3,5-dichlorophenyl)(phenyl)methyl)piperidin-4-yl)methoxy)-2-fluorobenzamide, trifluoroacetic acid salt] | 0.8 nM | –
8 | O=C(NS(=O)(=O)C1CC1)c1cc(C2CC2)c(OCC2CCN(C(c3cccc(Cl)c3)c3cccc(Cl)c3)CC2)cc1F [Example 401, 4-((1-(bis(3-chlorophenyl)methyl)piperidin-4-yl)methoxy)-5-cyclopropyl-N-(cyclopropylsulfonyl)-2-fluorobenzamide, trifluoroacetic acid salt] | 3.1 nM | –
9 | C[C@@H](c1cc(Cl)cc(Cl)c1)N1CCC(C)(COc2cc(F)c(C(=O)NS(C)(=O)=O)cc2C2CC2)CC1 (single isomer, unassigned) [Example 211] | 1.7 nM | –
10 | O=C(NS(=O)(=O)C1CC1)c1cc(C2CC2)c(OCC2CCN(S(=O)(=O)c3cc(Cl)cc(Cl)c3)CC2)cc1F [Example 275, 5-Cyclopropyl-N-(cyclopropylsulfonyl)-4-((1-((3,5-dichlorophenyl)sulfonyl)piperidin-4-yl)methoxy)-2-fluorobenzamide] | 6.9 nM | –
11 | C[C@@H](c1ccc(F)cc1Cl)N1C[C@H]2C[C@@H]1[C@H](Oc1cc(F)c(C(=O)NS(C)(=O)=O)cc1C1CC1)C2 [Example 450, 4-(((1R,4S,6R)-2-((S)-1-(2-chloro-4-fluorophenyl)ethyl)-2-azabicyclo[2.2.1]heptan-6-yl)oxy)-5-cyclopropyl-2-fluoro-N-(methylsulfonyl)benzamide, trifluoroacetic acid salt] | 9.9 nM | –
12 | O=C(NS(=O)(=O)C1CC1)c1cc(C2CC2)c(OCC2CCN(S(=O)(=O)c3ccc(F)c(Cl)c3)CC2)cc1F [Example 383, 4-((1-((3-chloro-4-fluorophenyl)sulfonyl)piperidin-4-yl)methoxy)-5-cyclopropyl-N-(cyclopropylsulfonyl)-2-fluorobenzamide] | 14.8 nM | –

Results, then the compound that gave them:

Row | IC50 [1] | IC50 | SMILES
13 | 417 nM | – | CS(=O)(=O)NC(=O)c1cc(C2CC2)c(OCC2CN([C@@H](c3ccccc3)c3ccccn3)C2)cc1F [Example 118, (S)-5-Cyclopropyl-2-fluoro-N-(methylsulfonyl)-4-((1-(phenyl(pyridin-2-yl)methyl)azetidin-3-yl)methoxy)benzamide]
14 | 180 nM | – | CC1(COc2cc(F)c(C(=O)NS(C)(=O)=O)cc2C2CC2)CCN(C(=O)c2cc(Cl)ccc2Cl)CC1 [Example 578, 5-cyclopropyl-4-((1-(2,5-dichlorobenzoyl)-4-methylpiperidin-4-yl)methoxy)-2-fluoro-N-(methylsulfonyl)benzamide]
15 | 91 nM | – | CS(=O)(=O)NC(=O)c1cc(C2CC2)c(OCC2CCN([C@@H](CO)c3cc(Cl)cc(Cl)c3)CC2)cc1F [Example 266]
16 | 6.22 nM | – | CS(=O)(=O)NC(=O)c1cc(C2CC2)c(OCC2CN([C@H](c3ccccc3)c3ccc(F)cc3)C2)cc1F [Example 145, (R)-5-Cyclopropyl-2-fluoro-4-((1-((4-fluorophenyl)(phenyl)methyl)-azetidin-3-yl)methoxy)-N-(methylsulfonyl)benzamide]
17 | 2.9 nM | – | CC1(COc2cc(F)c(C(=O)NS(C)(=O)=O)cc2C2CC2)CCN(C(c2ccccc2)c2ccccc2)CC1 [Example 574, 4-((1-benzhydryl-4-methylpiperidin-4-yl)methoxy)-5-cyclopropyl-2-fluoro-N-(methylsulfonyl)benzamide]
18 | 4.4 nM | – | C[C@H](c1cc(F)cc(Cl)c1)N1CCC(COc2cc(F)c(C(=O)NS(C)(=O)=O)cc2C2CC2)CC1 (single isomer, unassigned) [Example 230]
19 | 1.6 nM | – | COC[C@](C)(c1cc(Cl)cc(Cl)c1)N1CCC(COc2cc(F)c(C(=O)NS(C)(=O)=O)cc2C2CC2)CC1 (single isomer, unassigned) [Example 202]
20 | 9.15 nM | – | CS(=O)(=O)NC(=O)c1cc(C2CC2)c(OCC2CN([C@@H](c3ccccc3)c3ccc(F)cc3)C2)cc1F [Example 144, (S)-5-Cyclopropyl-2-fluoro-4-((1-((4-fluorophenyl)(phenyl)methyl)azetidin-3-yl)methoxy)-N-(methylsulfonyl)benzamide]
21 | – | 1.7 nM | CS(=O)(=O)NC(=O)c1cc(C2CC2)c(O[C@@H]2CCCN(Cc3ccc(Cl)cc3Cl)C2)cc1F [Example 29, (R)-5-cyclopropyl-4-((1-(2,4-dichlorobenzyl)piperidin-3-yl)oxy)-2-fluoro-N-(methylsulfonyl)benzamide]
22 | 1260 nM | – | O=C(NS(=O)(=O)C1CC1)c1cc(C2CC2)c(OCC2CCN(S(=O)(=O)C3CCOCC3)CC2)cc1F [Example 377, 5-cyclopropyl-N-(cyclopropylsulfonyl)-2-fluoro-4-((1-((tetrahydro-2H-pyran-4-yl)sulfonyl)piperidin-4-yl)methoxy)benzamide]
23 | 27 nM | – | CS(=O)(=O)NC(=O)c1cc(C2CC2)c(OCC2CN(c3cc(C(F)(F)F)c(Cl)cn3)C2)cc1F [Example 542, 4-((1-(5-chloro-4-(trifluoromethyl)pyridin-2-yl)azetidin-3-yl)methoxy)-5-cyclopropyl-2-fluoro-N-(methylsulfonyl)benzamide]
